Data reported in US7138361B2, “Herbicidal heterocycles” (E. I. du Pont de Nemours and Company, priority 2000, dated 2006).

How the values were obtained:
Format in all cases: in vivo
[1] = test system: Surinam grass (Brachiaria decumbens); assay: Test B preemergence; conditions: scale 0 to 100, 0 no effect, 100 complete control
Procedure, shortened: (§1)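 Ratings on a 0 to 100 visual scale (100 complete control) compare treated plants with controls 13 to 15 days after application. Treatments were pre- or postemergence sprays of compound in non-phytotoxic solvent with surfactant.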

[2] = test system: barnyardgrass (Echinochloa crus-galli); assay: Test B preemergence; conditions: scale 0 to 100, 0 no effect, 100 complete control
Procedure, shortened: as §1

[3] = test system: cocklebur (Xanthium strumarium); assay: Test B preemergence; conditions: scale 0 to 100, 0 no effect, 100 complete control
Procedure, shortened: as §1

corn (Zea mays) = assay: Test B preemergence; conditions: scale 0 to 100, 0 no effect, 100 complete control
Procedure, shortened: as §1

[4] = test system: crabgrass (Digitaria sanguinalis); assay: Test B preemergence; conditions: scale 0 to 100, 0 no effect, 100 complete control
Procedure, shortened: as §1

[5] = test system: giant foxtail (Setaria faberii); assay: Test B preemergence; conditions: scale 0 to 100, 0 no effect, 100 complete control
Procedure, shortened: as §1

[6] = test system: lambsquarters (Chenopodium album); assay: Test B preemergence; conditions: scale 0 to 100, 0 no effect, 100 complete control
Procedure, shortened: as §1

[7] = test system: morning glory (Ipomoea hederacea); assay: Test B preemergence; conditions: scale 0 to 100, 0 no effect, 100 complete control
Procedure, shortened: as §1

[8] = test system: pigweed (Amaranthus retroflexus); assay: Test B preemergence; conditions: scale 0 to 100, 0 no effect, 100 complete control
Procedure, shortened: as §1

rice (Oryza saliva) = assay: Test B preemergence; conditions: scale 0 to 100, 0 no effect, 100 complete control
Procedure, shortened: as §1

[9] = test system: velvetleaf (Abutilon theophrasti); assay: Test B preemergence; conditions: scale 0 to 100, 0 no effect, 100 complete control
Procedure, shortened: as §1

Nightshade = assay: Test C preemergence
[10] = test system: Surinam grass (Brachiaria decumbens); assay: Test C preemergence; conditions: for Plant response rating (0 to 100), Surinam grass: Rate 250 g/ha, visual evaluation after 12 to 14 days
Procedure, shortened: (§2)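 Compounds in non-phytotoxic solvent with surfactant applied preemergence to planted seeds and postemergence to plants at 1- to 4-leaf stage (2–18 cm). Kept in greenhouse 12–14 days, then visually rated against controls on a 0 (no effect) to 100 (complete control) scale.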

[11] = test system: cocklebur (Xanthium strumarium); assay: Test C preemergence; conditions: for Plant response rating (0 to 100), Cocklebur: Rate 250 g/ha, visual evaluation after 12 to 14 days
Procedure, shortened: as §2

[12] = test system: common ragweed (Ambrosia elatior); assay: Test C preemergence
Procedure, shortened: as §2

[13] = test system: crabgrass (Digitaria sanguinalis); assay: Test C preemergence; conditions: for Plant response rating (0 to 100), Crabgrass: Rate 250 g/ha, visual evaluation after 12 to 14 days
Procedure, shortened: as §2

[14] = test system: goosegrass (Eleusine indica); assay: Test C preemergence; conditions: for Plant response rating (0 to 100), Goosegrass: Rate 250 g/ha, visual evaluation after 12 to 14 days
Procedure, shortened: as §2

[15] = test system: lambsquarters (Chenopodium album); assay: Test C preemergence; conditions: for Plant response rating (0 to 100), Lambsquarters: Rate 250 g/ha, visual evaluation after 12 to 14 days
Procedure, shortened: as §2

[16] = test system: pigweed (Amaranthus retroflexus); assay: Test C preemergence; conditions: for Plant response rating (0 to 100), Pigweed: Rate 250 g/ha, visual evaluation after 12 to 14 days
Procedure, shortened: as §2

soybean (Glycine max) = assay: Test C preemergence; conditions: for Plant response rating (0 to 100), Soybean: Rate 250 g/ha, visual evaluation after 12 to 14 days
Procedure, shortened: as §2

[17] = test system: woolly cupgrass (Eriochloa villosa); assay: Test C preemergence; conditions: for Plant response rating (0 to 100), Cupgrass, Woolly: Rate 250 g/ha, visual evaluation after 12 to 14 days
Procedure, shortened: as §2

[18] = Rate 62 g/ha, scale 0 to 100, 0 no effect, 100 complete control
[19] = Rate 125 g/ha, scale 0 to 100, 0 no effect, 100 complete control
[20] = Preemergence, Rate 500 g/ha, scale 0 to 100
[21] = preemergence, Rate 125 g/ha, scale 0 to 100, 0 no effect, 100 complete control

SMILES: O=C1C(n2ccc(C3CC3)n2)CCN1c1cccc(C(F)(F)F)c1 (centres unmarked) [Compound 8]
- Plant response rating, Surinam grass ([1]; Preemergence, Rate 500 g/ha): 70
- Plant response rating, Surinam grass ([1]; preemergence, Rate 125 g/ha): 20
- Plant response rating, Barnyardgrass ([2]; Preemergence, Rate 500 g/ha): 70
- Plant response rating, Barnyardgrass ([2]; preemergence, Rate 125 g/ha): 0
- Plant response rating, Cocklebur ([3]; Preemergence, Rate 500 g/ha): 0
- Plant response rating, Cocklebur ([3]; preemergence, Rate 125 g/ha): 0
- Plant response rating, Corn (corn (Zea mays); Preemergence, Rate 500 g/ha): 0
- Plant response rating, Corn (corn (Zea mays); preemergence, Rate 125 g/ha): 0
- Plant response rating, Crabgrass ([4]; Preemergence, Rate 500 g/ha): 100
- Plant response rating, Crabgrass ([4]; preemergence, Rate 125 g/ha): 30
- Plant response rating, Foxtail, Giant ([5]; Preemergence, Rate 500 g/ha): 90
- Plant response rating, Foxtail, Giant ([5]; preemergence, Rate 125 g/ha): 40
- Plant response rating, Lambsquarters ([6]; Preemergence, Rate 500 g/ha): 100
- Plant response rating, Lambsquarters ([6]; preemergence, Rate 125 g/ha): 0
- Plant response rating, Morningglory ([7]; Preemergence, Rate 500 g/ha): 0
- Plant response rating, Morningglory ([7]; preemergence, Rate 125 g/ha): 0
- Plant response rating, Pigweed ([8]; Preemergence, Rate 500 g/ha): 100
- Plant response rating, Pigweed ([8]; preemergence, Rate 125 g/ha): 20
- Plant response rating, Rice (rice (Oryza saliva); Preemergence, Rate 500 g/ha): 0
- Plant response rating, Rice (rice (Oryza saliva); preemergence, Rate 125 g/ha): 0
- Plant response rating, Velvetleaf ([9]; Preemergence, Rate 500 g/ha): 0
- Plant response rating, Velvetleaf ([9]; preemergence, Rate 125 g/ha): 0
- Plant response rating, Nightshade (Nightshade; [18]): 0
- Plant response rating, Nightshade (Nightshade; [19]): 0
- Plant response rating, Nightshade (Nightshade; Rate 500 g/ha, scale 0 to 100): 0
- Plant response rating, Surinam grass [10, 20]: 60
- Plant response rating, Surinam grass [10, 18]: 0
- Plant response rating (0 to 100), Surinam grass ([10]; preemergence): 50
- Plant response rating, Surinam grass [10, 21]: 0
- Plant response rating, Cocklebur [11, 20]: 0
- Plant response rating, Cocklebur [11, 18]: 0
- Plant response rating (0 to 100), Cocklebur ([11]; preemergence): 0
- Plant response rating, Cocklebur [11, 21]: 0
- Plant response rating, Ragweed, Common [12, 20]: 80
- Plant response rating, Ragweed, Common [12, 18]: 0
- Plant response rating, Ragweed, Common [12, 21]: 0
- Plant response rating, Crabgrass [13, 20]: 100
- Plant response rating, Crabgrass [13, 18]: 70
- Plant response rating (0 to 100), Crabgrass ([13]; preemergence): 90
- Plant response rating, Crabgrass [13, 21]: 70
- Plant response rating, Goosegrass [14, 20]: 100
- Plant response rating, Goosegrass [14, 18]: 0
- Plant response rating (0 to 100), Goosegrass ([14]; preemergence): 90
- Plant response rating, Goosegrass [14, 21]: 20
- Plant response rating, Lambsquarters [15, 20]: 100
- Plant response rating, Lambsquarters [15, 18]: 100
- Plant response rating (0 to 100), Lambsquarters ([15]; preemergence): 100
- Plant response rating, Lambsquarters [15, 21]: 100
- Plant response rating, Pigweed [16, 20]: 100
- Plant response rating, Pigweed [16, 18]: 20
- Plant response rating (0 to 100), Pigweed ([16]; preemergence): 100
- Plant response rating, Pigweed [16, 21]: 80
- Plant response rating, Soybean (soybean (Glycine max); [20]): 20
- Plant response rating, Soybean (soybean (Glycine max); [18]): 0
- Plant response rating (0 to 100), Soybean (soybean (Glycine max); preemergence): 20
- Plant response rating, Soybean (soybean (Glycine max); [21]): 0
- Plant response rating, Cupgrass, Woolly [17, 20]: 80
- Plant response rating, Cupgrass, Woolly [17, 18]: 0
- Plant response rating (0 to 100), Cupgrass, Woolly ([17]; preemergence): 50
- Plant response rating, Cupgrass, Woolly [17, 21]: 40

SMILES: O=C1C(n2ccc(C3CCC3)n2)SCN1c1cccc(OC(F)(F)F)c1 (centres unmarked) [Compound 38]
- Plant response rating, Surinam grass ([1]; Preemergence, Rate 500 g/ha): 60
- Plant response rating, Surinam grass ([1]; preemergence, Rate 125 g/ha): 0
- Plant response rating, Barnyardgrass ([2]; Preemergence, Rate 500 g/ha): 100
- Plant response rating, Barnyardgrass ([2]; preemergence, Rate 125 g/ha): 70
- Plant response rating, Cocklebur ([3]; Preemergence, Rate 500 g/ha): 0
- Plant response rating, Corn (corn (Zea mays); Preemergence, Rate 500 g/ha): 0
- Plant response rating, Corn (corn (Zea mays); preemergence, Rate 125 g/ha): 0
- Plant response rating, Crabgrass ([4]; Preemergence, Rate 500 g/ha): 100
- Plant response rating, Crabgrass ([4]; preemergence, Rate 125 g/ha): 0
- Plant response rating, Foxtail, Giant ([5]; Preemergence, Rate 500 g/ha): 100
- Plant response rating, Foxtail, Giant ([5]; preemergence, Rate 125 g/ha): 0
- Plant response rating, Lambsquarters ([6]; Preemergence, Rate 500 g/ha): 100
- Plant response rating, Lambsquarters ([6]; preemergence, Rate 125 g/ha): 100
- Plant response rating, Morningglory ([7]; Preemergence, Rate 500 g/ha): 0
- Plant response rating, Pigweed ([8]; Preemergence, Rate 500 g/ha): 100
- Plant response rating, Rice (rice (Oryza saliva); Preemergence, Rate 500 g/ha): 10
- Plant response rating, Velvetleaf ([9]; Preemergence, Rate 500 g/ha): 0
- Plant response rating, Nightshade (Nightshade; [18]): 0
- Plant response rating, Nightshade (Nightshade; [19]): 0
- Plant response rating, Nightshade (Nightshade; Rate 500 g/ha, scale 0 to 100): 90
- Plant response rating, Surinam grass [10, 20]: 90
- Plant response rating, Surinam grass [10, 18]: 0
- Plant response rating (0 to 100), Surinam grass ([10]; preemergence): 0
- Plant response rating, Surinam grass [10, 21]: 0
- Plant response rating, Cocklebur [11, 20]: 60
- Plant response rating, Cocklebur [11, 18]: 0
- Plant response rating (0 to 100), Cocklebur ([11]; preemergence): 20
- Plant response rating, Cocklebur [11, 21]: 0
- Plant response rating, Ragweed, Common [12, 20]: 100
- Plant response rating, Ragweed, Common [12, 18]: 0
- Plant response rating (0 to 100), Ragweed, Common ([12]; preemergence, Rate 250 g/ha, visual evaluation after 12 to 14 days): 40
- Plant response rating, Ragweed, Common [12, 21]: 20
- Plant response rating, Crabgrass [13, 20]: 100
- Plant response rating, Crabgrass [13, 18]: 90
- Plant response rating (0 to 100), Crabgrass ([13]; preemergence): 100
- Plant response rating, Crabgrass [13, 21]: 100
- Plant response rating, Goosegrass [14, 20]: 100
- Plant response rating, Goosegrass [14, 18]: 80
- Plant response rating (0 to 100), Goosegrass ([14]; preemergence): 100
- Plant response rating, Goosegrass [14, 21]: 90
- Plant response rating, Lambsquarters [15, 20]: 100
- Plant response rating, Lambsquarters [15, 18]: 90
- Plant response rating (0 to 100), Lambsquarters ([15]; preemergence): 100
- Plant response rating, Lambsquarters [15, 21]: 100
- Plant response rating, Pigweed [16, 20]: 30
- Plant response rating, Pigweed [16, 18]: 0
- Plant response rating (0 to 100), Pigweed ([16]; preemergence): 0
- Plant response rating, Pigweed [16, 21]: 0
- Plant response rating, Soybean (soybean (Glycine max); [20]): 0
- Plant response rating, Soybean (soybean (Glycine max); [18]): 0
- Plant response rating (0 to 100), Soybean (soybean (Glycine max); preemergence): 0
- Plant response rating, Soybean (soybean (Glycine max); [21]): 0
- Plant response rating, Cupgrass, Woolly [17, 20]: 90
- Plant response rating, Cupgrass, Woolly [17, 18]: 0
- Plant response rating (0 to 100), Cupgrass, Woolly ([17]; preemergence): 0
- Plant response rating, Cupgrass, Woolly [17, 21]: 0
